Measurements taken from US9346761B2, “Arginine methyltransferase inhibitors and uses thereof” (Epizyme, Inc., priority 2013, dated 2016).

system: mono-methyl arginine in RKO cells; assay: RKO methylation assay, In Cell Western for mono-methyl arginine and DNA content; assay type: cell-based; settings: Homo sapiens, RKO, 72 h

CC(C)Oc1ccc(-c2n[nH]cc2CN(C)CCN)cc1F [Compound 97] and COc1ccc(-c2n[nH]cc2CN(C)CCN)cc1Cl [Compound 125] cannot be ordered by EC30: < 3 µM for the first, < 3 µM for the second.

First: CC(C)c1ccc(-c2c[nH]nc2CN(C)CCN)cc1 [Compound 101]
Second: CN(CCN)Cc1c[nH]nc1-c1ccc(Cl)cc1F [Compound 132]
The EC30 of the first is higher: 3.01 to 12 µM for the first, < 3 µM for the second.

same assay, conditions: Homo sapiens; In Cell Western, RKO cells, 72 hours, percent activation of mono-methyl arginine signal; read-out: EC30

COCCn1cc(CN(C)CCN)c(-c2ccc(F)cc2)n1 [Compound 5] and COCCn1ncc(CN(C)CCN)c1-c1ccc(F)cc1 [Compound 6] cannot be ordered by EC30: > 12 µM for the first, > 12 µM for the second.

First: CCn1ncc(CN(C)CCNC)c1-c1ccc(F)cc1 [Compound 7]
Second: CCn1cc(CN(C)CCNC)c(-c2ccc(F)cc2)n1 [Compound 8]
The EC30 of the first is lower: 3.01 to 12 µM for the first, > 12 µM for the second.

CN(CCN)Cc1c[nH]nc1-c1ccc(Cl)cc1 [Compound 95] and Cc1ccc(-c2n[nH]cc2CN(C)CCN)cc1 [Compound 162] cannot be ordered by EC30: < 3 µM for the first, < 3 µM for the second.

CN(CCN)Cc1c[nH]nc1-c1ccc(OCC(F)(F)F)cc1 [Compound 96] and CCOc1ccc(-c2n[nH]cc2CN(C)CCN)cc1 [Compound 166] cannot be ordered by EC30: < 3 µM for the first, < 3 µM for the second.

CN(CCN)Cc1c[nH]nc1-c1ccc(C2CCOCC2)cc1 [Compound 98] and CN(CCN)Cc1c[nH]nc1-c1ccc(C2CC2)cc1 [Compound 116] cannot be ordered by EC30: < 3 µM for the first, < 3 µM for the second.

First: CN(CCN)Cc1c[nH]nc1-c1ccc(F)cc1F [Compound 99]
Second: Cc1ccc(-c2n[nH]cc2CN(C)CCN)c(F)c1 [Compound 108]
The EC30 of the first is lower: 3.01 to 12 µM for the first, > 12 µM for the second.

CN(CCN)Cc1n[nH]cc1-c1ccc(C#N)cc1 [Compound 100] and CN(CCN)Cc1n[nH]cc1-c1ccc(Cl)cc1 [Compound 102] cannot be ordered by EC30: < 3 µM for the first, < 3 µM for the second.

First: CN(CCN)Cc1n[nH]cc1-c1ccc(C(F)(F)F)cc1 [Compound 103]
Second: CN(CCN)Cc1n[nH]cc1-c1ccc(OC(F)(F)F)cc1 [Compound 105]
The EC30 of the first is higher: 3.01 to 12 µM for the first, < 3 µM for the second.

First: CN(CCN)Cc1n[nH]cc1-c1ccc(C2CC2)cc1 [Compound 104]
Second: CN(CCN)Cc1n[nH]cc1-c1ccc(C2CCOCC2)cc1 [Compound 145]
The EC30 of the first is higher: 3.01 to 12 µM for the first, < 3 µM for the second.

Compared with CN(CCN)Cc1c[nH]nc1-c1cc(F)ccc1Cl [Compound 106], Cc1ccc(F)cc1-c1n[nH]cc1CN(C)CCN [Compound 159] is lower in EC30: > 12 µM for the first, 3.01 to 12 µM for the second.

Compared with COc1ccc(-c2n[nH]cc2CN(C)CCN)c(F)c1 [Compound 107], COc1ccc(-c2n[nH]cc2CN(C)CCN)c(Cl)c1 [Compound 146] is lower in EC30: > 12 µM for the first, 3.01 to 12 µM for the second.

COc1ccccc1-c1n[nH]cc1CN(C)CCN [Compound 109] and Cc1ccccc1-c1n[nH]cc1CN(C)CCN [Compound 161] cannot be ordered by EC30: > 12 µM for the first, > 12 µM for the second.

Cc1cc(C#N)ccc1-c1n[nH]cc1CN(C)CCN [Compound 110] and Cc1ccc(C#N)cc1-c1n[nH]cc1CN(C)CCN [Compound 158] cannot be ordered by EC30: > 12 µM for the first, > 12 µM for the second.

Compared with CN(CCN)Cc1c[nH]nc1-c1cc(F)cc(F)c1 [Compound 111], CN(CCN)Cc1c[nH]nc1-c1cc(F)cc(Cl)c1 [Compound 121] is lower in EC30: > 12 µM for the first, < 3 µM for the second.

First: CC(=O)c1cccc(-c2n[nH]cc2CN(C)CCN)c1 [Compound 112]
Second: CCOC(=O)c1cccc(-c2n[nH]cc2CN(C)CCN)c1 [Compound 150]
The EC30 of the first is higher: > 12 µM for the first, 3.01 to 12 µM for the second.

CN(CCN)Cc1cnn(CC(O)CO)c1-c1ccc(F)cc1 (centres unmarked) [Compound 113] and NCCN(CCO)Cc1c[nH]nc1-c1ccc(F)cc1 [Compound 171] cannot be ordered by EC30: > 12 µM for the first, > 12 µM for the second.

First: CN(CCN)Cc1c[nH]nc1-c1ccc(OC2CC2)cc1 [Compound 114]
Second: CN(CCN)Cc1n[nH]cc1-c1ccc(OC2CC2)cc1 [Compound 119]
The EC30 of the first is lower: < 3 µM for the first, 3.01 to 12 µM for the second.

Compared with CC(O)c1ccc(-c2n[nH]cc2CN(C)CCN)cc1 (centres unmarked) [Compound 115], COc1ccc(-c2n[nH]cc2CN(C)CCN)cc1 [Compound 153] is lower in EC30: > 12 µM for the first, < 3 µM for the second.

CN(CCN)Cc1c[nH]nc1-c1ccc(C(F)(F)F)c(Cl)c1 [Compound 117] and CN(CCN)Cc1c[nH]nc1-c1ccc(C(F)(F)F)c(F)c1 [Compound 141] cannot be ordered by EC30: < 3 µM for the first, < 3 µM for the second.

CN(CCN)Cc1c[nH]nc1-c1ccc(Cl)c(F)c1 [Compound 118] and CN(CCN)Cc1c[nH]nc1-c1ccc(F)c(Cl)c1 [Compound 124] cannot be ordered by EC30: < 3 µM for the first, < 3 µM for the second.

First: CN(CCN)Cc1c[nH]nc1-c1cccc(Cl)c1 [Compound 122]
Second: Cc1cccc(-c2n[nH]cc2CN(C)CCN)c1 [Compound 131]
The EC30 of the first is higher: 3.01 to 12 µM for the first, < 3 µM for the second.

Compared with CN(CCN)Cc1c[nH]nc1-c1cccc(Cl)c1F [Compound 123], Cc1c(F)cccc1-c1n[nH]cc1CN(C)CCN [Compound 129] is higher in EC30: < 3 µM for the first, 3.01 to 12 µM for the second.

Cc1ccc(-c2n[nH]cc2CN(C)CCN)cc1Cl [Compound 126] and Cc1cc(Cl)ccc1-c1n[nH]cc1CN(C)CCN [Compound 133] cannot be ordered by EC30: < 3 µM for the first, < 3 µM for the second.

COc1cc(Cl)cc(-c2n[nH]cc2CN(C)CCN)c1 [Compound 127] and CN(CCN)Cc1c[nH]nc1-c1cc(Cl)cc(Cl)c1 [Compound 137] fall in the same range of EC30: 3.01 to 12 µM for the first, 3.01 to 12 µM for the second.

CN(CCN)Cc1cn(CC2CCOCC2)nc1-c1ccc(F)cc1 [Compound 128] and CN(CCN)Cc1c[nH]nc1-c1ccc(OCCN2CCOCC2)cc1 [Compound 172] cannot be ordered by EC30: > 12 µM for the first, > 12 µM for the second.

COc1cccc(-c2n[nH]cc2CN(C)CCN)c1 [Compound 130] and CN(CCN)Cc1c[nH]nc1-c1cccc(N(C)C)c1 [Compound 149] fall in the same range of EC30: 3.01 to 12 µM for the first, 3.01 to 12 µM for the second.

COc1ccc(-c2n[nH]cc2CN(C)CCN)cc1F [Compound 134] and COc1cc(-c2n[nH]cc2CN(C)CCN)ccc1F [Compound 142] cannot be ordered by EC30: < 3 µM for the first, < 3 µM for the second.

CN(CCN)Cc1c[nH]nc1-c1ccc(C(F)(F)F)cc1Cl [Compound 135] and CN(CCN)Cc1c[nH]nc1-c1ccc(C(F)(F)F)cc1F [Compound 148] fall in the same range of EC30: 3.01 to 12 µM for the first, 3.01 to 12 µM for the second.

CCNC(=O)c1ccc(-c2n[nH]cc2CN(C)CCN)cc1 [Compound 136] and CCN(C)C(=O)c1ccc(-c2n[nH]cc2CN(C)CCN)cc1 [Compound 163] cannot be ordered by EC30: > 12 µM for the first, > 12 µM for the second.

CN(CCN)Cc1n[nH]cc1-c1ccc(OC(F)F)cc1 [Compound 138] and CC(C)Cc1ccc(-c2c[nH]nc2CN(C)CCN)cc1 [Compound 170] cannot be ordered by EC30: < 3 µM for the first, < 3 µM for the second.

CN(CCN1CCCC1)Cc1c[nH]nc1-c1ccc(C#N)cc1 [Compound 139] and CN(CCN)Cc1c[nH]nc1-c1cc(C#N)ccc1Cl [Compound 147] cannot be ordered by EC30: > 12 µM for the first, > 12 µM for the second.

First: CN(CCN)Cc1c[nH]nc1-c1ccccc1C#N [Compound 140]
Second: Cc1cc(F)ccc1-c1n[nH]cc1CN(C)CCN [Compound 152]
The EC30 of the first is higher: > 12 µM for the first, 3.01 to 12 µM for the second.

CCN(CC)C(=O)c1ccc(-c2n[nH]cc2CN(C)CCN)cc1 [Compound 143] and CC(C)CN(C)C(=O)c1ccc(-c2n[nH]cc2CN(C)CCN)cc1 [Compound 164] cannot be ordered by EC30: > 12 µM for the first, > 12 µM for the second.

Going from CC(C)Oc1ccc(-c2c[nH]nc2CN(C)CCN)cc1F [Compound 144] to COc1ccc(F)cc1-c1n[nH]cc1CN(C)CCN [Compound 160], the EC30 rises from < 3 µM to > 12 µM.

First: COc1cc(F)ccc1-c1n[nH]cc1CN(C)CCN [Compound 151]
Second: COc1ccc(Cl)cc1-c1n[nH]cc1CN(C)CCN [Compound 157]
The EC30 of the first is lower: 3.01 to 12 µM for the first, > 12 µM for the second.

Compared with COc1ccc(-c2n[nH]cc2CN(C)CCN)c(C(F)(F)F)c1 [Compound 154], COc1ccc(-c2n[nH]cc2CN(C)CCN)c(C)c1 [Compound 155] is lower in EC30: > 12 µM for the first, 3.01 to 12 µM for the second.

Compared with CN(CCN)Cc1c[nH]nc1-c1cc(Cl)ccc1F [Compound 156], CN(CCN)Cc1c[nH]nc1-c1ccc2c(c1)NC(=O)CO2 [Compound 173] is higher in EC30: 3.01 to 12 µM for the first, > 12 µM for the second.

Going from COCCOc1ccc(-c2n[nH]cc2CN(C)CCN)cc1 [Compound 167] to Cc1[nH]nc(-c2ccc(F)cc2)c1CN(C)CCN [Compound 169], the EC30 rises from < 3 µM to > 12 µM.
